The source of these data is ChEMBL document CHEMBL1136832, “Synthesis of 7-chloro-2,3-dihydro-2-[1-(pyridinyl)alkyl]-pyridazino[4,5-b]quinoline-1,4,10(5H)-triones as NMDA glycine-site antagonists” (Bioorg Med Chem Lett, 2003).

The test system of series [1] is Caco-2. The following applies: Homo sapiens.
Description: Cellular permeability in Caco-2 cells.
In series [2] the target is Glutamate NMDA receptor. Format: cell membranes, Membrane.
Description: Affinity for glycine site of NMDA receptor on rat brain membranes by displacement of [3H]- MDL 105,519.
The nature of series [3]: physchem. The following applies: buffer, pH 7.4.
Series [4] is described as follows: Oral bioavailability in rat. As to conditions: in vivo.

For `CCCCC(c1ccccn1)n1[nH]c(=O)c2nc3cc(Cl)ccc3c(O)c2c1=O.CS(=O)(=O)O` (stereo not drawn), the Permeability in series [1] amounted to 1.6e-05. In addition, in series [2], the Ki was over 10 µM. The compound further came in with a solubility in series [3] of over 220 µg/mL.
The compound `CCCC(c1ccncc1)n1[nH]c(=O)c2nc3cc(Cl)ccc3c(O)c2c1=O.CS(=O)(=O)O` (stereo not drawn) showed a Permeability in series [1] of 1.6e-05. Moreover, in series [2], the Ki came to 4.34 µM. Further, the solubility in series [3] is over 220 µg/mL.
Compound `CC(c1cc[n+]([O-])cc1)n1[nH]c(=O)c2nc3cc(Cl)ccc3c(O)c2c1=O` (stereo not drawn) had a Ki in series [2] of 2.42 µM.
In turn, `CC(C)CC(c1ccncc1)n1[nH]c(=O)c2nc3cc(Cl)ccc3c(O)c2c1=O.CS(=O)(=O)O` (stereo not drawn) displayed a Permeability in series [1] of 1.1e-05. The compound further registered a Ki in series [2] of 5.23 µM. In series [3], the solubility is over 170 µg/mL.
As to `CCC(c1ccncc1)n1[nH]c(=O)c2[nH]c3cc(Cl)ccc3c(=O)c2c1=O.CS(=O)(=O)O` (stereo not drawn), in series [4], the bioavailability turned out to be 17%. Besides, in series [1], the Permeability came to 1.1e-05. This compound also registered a solubility in series [3] of over 200 µg/mL.
Consider `O=c1[nH]n(Cc2ccncc2)c(=O)c2c(=O)c3ccc(Cl)cc3[nH]c12`, for which the bioavailability in series [4] turned out to be 5%. In series [1], the Permeability was 2e-07.
In turn, `CC(C)CC(c1ccccn1)n1[nH]c(=O)c2nc3cc(Cl)ccc3c(O)c2c1=O.CS(=O)(=O)O` (stereo not drawn) registered a Permeability in series [1] of 9.1e-06. In series [2], the Ki was over 10 µM. In addition, the solubility in series [3] is over 130 µg/mL.
In the case of `CS(=O)(=O)O.O=c1[nH]n(C(c2ccccc2)c2ccncc2)c(=O)c2c(O)c3ccc(Cl)cc3nc12` (stereo not drawn), the Permeability in series [1] was determined as 4e-06. In series [2], this compound showed a Ki of over 10 µM. This compound yielded a solubility in series [3] of 130 µg/mL.
Consider `CS(=O)(=O)O.O=c1[nH]n(C(c2ccccn2)C2CCCC2)c(=O)c2c(O)c3ccc(Cl)cc3nc12` (stereo not drawn), for which the Permeability in series [1] came out at 5.6e-06. For the same compound, in series [2], the Ki is over 10 µM. In series [3], this compound came in with a solubility of over 170 µg/mL.
For the compound `CC(c1ccncc1)n1[nH]c(=O)c2[nH]c3cc(Cl)ccc3c(=O)c2c1=O.CS(=O)(=O)O` (stereo not drawn), the bioavailability in series [4] is 30%. In addition, the Permeability in series [1] turned out to be 5.8e-06.
The compound `CCC(c1ccccn1)n1[nH]c(=O)c2nc3cc(Cl)ccc3c(O)c2c1=O` (stereo not drawn) had a Ki in series [2] of 2.36 µM.
As to `CS(=O)(=O)O.O=c1[nH]n(C(c2ccccn2)C2CC2)c(=O)c2c(O)c3ccc(Cl)cc3nc12` (stereo not drawn), the Permeability in series [1] is 9.8e-06. In series [2], the affinity corresponds to a Ki of 0.996 µM. In series [3], this compound came in with a solubility of 490 µg/mL.
Taken in the same sequence, the figures for `O=c1[nH]n(Cc2cc[n+]([O-])cc2)c(=O)c2c(O)c3ccc(Cl)cc3nc12` were 5e-07, 0.439 µM and over 160 µg/mL.
